Data from patent USRE33699E, “Growth hormone-releasing factor analogs” (International Minerals & Chemical Corp., priority 1990, dated 1991).
Square brackets hold non-standard residues; d marks the D form. Peptide text beside a SMILES is read from it. Nle = CCCC[C@H](N)C(=O)O

Tested on: rat pituitary cells
Assay: Bioassay of hGRF analogs: stimulation of growth hormone release in rat pituitary cells in tissue culture
Format: cell-based
Conditions: for Dose Needed to Release 2.01 μg/ml of GH: 2.01 μg/ml = GH released at the ED50 of hGRF; for Dose Needed to Release 2.01 μg/ml of GH / Relative Maximum Activity (% of hGRF): from ALLFIT curves; for Potency: (ED50 of hGRF)/(Dose required to give same response as ED50 of hGRF)
Source text: The assay for biological activity, which is based on the ability to stimulate release of growth hormone in rat pituitary cells in tissue culture, has been described in detail (Culler, M. D.; Kenjo, T.: Obara, N.; Arimuar, A., Stimulation of cAMP. Accumulation by Human Pancreatic GH-Releasing Factor(1-44). Am. J. Physiol. 1984, 247 (Endocrinol.Metab. 10). E609-E615.
ALLFIT, the 4-parameter logistic curve fitting program available from the Biomedical Computer Technology Information Center, Vanderbilt Medical Center, Nashville Tenn., was used to determine ED50 and maximal stimulated values from the data. In several instances, the amount of GH released reached a maximum value and decreased with further increasing doses of the hGRF analogs. To simplify the data analysis, these values were not used in the calculations. The calculated maximal responses, the doses of the analog required to release the amount of GH released at the ED50 of the standard (hGRF) and the potencies of the analogs relative to hGRF, are given in Table 2. Generally all novel analogs were fully active and were able to stimulate the release of growth hormone with maximal values of GH release being within 80% of the value for natural hGRF.

For `CCCC[C@H](NC(=O)[C@@H](NC(=O)[C@H](CC(N)=O)NC(=O)[C@H](CCC(N)=O)NC(=O)[C@H](CC(C)C)NC(=O)[C@H](CC(C)C)NC(=O)[C@H](CCCCN)NC(=O)[C@H](CCCNC(=N)N)NC(=O)[C@H](C)NC(=O)[C@H](CO)NC(=O)[C@H](CC(C)C)NC(=O)[C@H](CCC(N)=O)NC(=O)CNC(=O)[C@H](CC(C)C)NC(=O)[C@@H](NC(=O)[C@H](CCCCN)NC(=O)[C@H](CCCNC(=N)N)NC(=O)[C@H](Cc1ccc(O)cc1)NC(=O)[C@H](CO)NC(=O)[C@H](CC(N)=O)NC(=O)[C@@H](NC(=O)[C@H](Cc1ccccc1)NC(=O)[C@@H](NC(=O)[C@H](C)NC(=O)[C@H](CC(N)=O)NC(=O)[C@H](C)NC(=O)[C@@H](N)Cc1ccc(O)cc1)[C@@H](C)CC)[C@@H](C)O)C(C)C)[C@@H](C)CC)C(=O)N[C@@H](CO)C(=O)N[C@@H](CCCNC(=N)N)C(=O)N[C@@H](CCC(N)=O)C(=O)N[C@@H](CCC(N)=O)C(N)=O` [[Asn^3, Asn^25, Nle^27]-hGRF(1-31)--NH2, [Asn^3,Asn^25,Nle^27]-hGRF (1-31)--NH2] (H-YANAIFTNSYRKVLGQLSARKLLQNI[Nle]SRQQ-NH2), the “Dose Needed to Release 2.01 μg/ml of GH” value was 1.54 nM, the Potency was 21% and the “Relative Maximum Activity (% of hGRF)” value was 101 % of hGRF.
`CCCC[C@H](NC(=O)[C@@H](NC(=O)[C@H](CC(=O)O)NC(=O)[C@H](CCC(N)=O)NC(=O)[C@H](CC(C)C)NC(=O)[C@H](CC(C)C)NC(=O)[C@H](CCCCN)NC(=O)[C@H](CCCNC(=N)N)NC(=O)[C@H](C)NC(=O)[C@H](CO)NC(=O)[C@H](CC(C)C)NC(=O)[C@H](CCC(N)=O)NC(=O)CNC(=O)[C@H](CC(C)C)NC(=O)[C@@H](NC(=O)[C@H](CCCCN)NC(=O)[C@H](CCCNC(=N)N)NC(=O)[C@H](Cc1ccc(O)cc1)NC(=O)[C@H](CO)NC(=O)[C@H](CC(=O)O)NC(=O)[C@@H](NC(=O)[C@H](Cc1ccccc1)NC(=O)[C@@H](NC(=O)[C@H](C)NC(=O)[C@H](CC(=O)O)NC(=O)[C@H](C)NC(=O)[C@@H](N)Cc1ccc(O)cc1)[C@@H](C)CC)[C@@H](C)O)C(C)C)[C@@H](C)CC)C(=O)N[C@@H](CO)C(=O)N[C@@H](CCCNC(=N)N)C(=O)N[C@@H](CCC(N)=O)C(=O)N[C@@H](CCC(N)=O)C(N)=O` [[Asp^8, Nle^27]-hGRF(1-31)--NH2, [Asp^8,Nle^27]-hGRF(1-31)--NH2] (H-YADAIFTDSYRKVLGQLSARKLLQDI[Nle]SRQQ-NH2) was tested, and the “Dose Needed to Release 2.01 μg/ml of GH” value was 0.39 nM, the Potency was 82% and the “Relative Maximum Activity (% of hGRF)” value was 109 % of hGRF.
With `CCCC[C@H](NC(=O)[C@@H](NC(=O)[C@H](CC(N)=O)NC(=O)[C@H](CCC(N)=O)NC(=O)[C@H](CC(C)C)NC(=O)[C@H](CC(C)C)NC(=O)[C@H](CCCCN)NC(=O)[C@H](CCCNC(=N)N)NC(=O)[C@H](C)NC(=O)[C@H](CO)NC(=O)[C@H](CC(C)C)NC(=O)[C@H](CCC(N)=O)NC(=O)CNC(=O)[C@H](CC(C)C)NC(=O)[C@@H](NC(=O)[C@H](CCCCN)NC(=O)[C@H](CCCNC(=N)N)NC(=O)[C@H](Cc1ccc(O)cc1)NC(=O)[C@H](CO)NC(=O)[C@H](CC(=O)O)NC(=O)[C@@H](NC(=O)[C@H](Cc1ccccc1)NC(=O)[C@@H](NC(=O)[C@H](C)NC(=O)[C@H](CC(=O)O)NC(=O)[C@H](C)NC(=O)[C@@H](N)Cc1ccc(O)cc1)[C@@H](C)CC)[C@@H](C)O)C(C)C)[C@@H](C)CC)C(=O)N[C@@H](CO)C(=O)N[C@@H](CCCNC(=N)N)C(=O)N[C@@H](CCC(N)=O)C(=O)N[C@@H](CCC(N)=O)C(N)=O` [[Asp^8, Asn^25, Nle^27]-hGRF(1-31)--NH2, [Asp^8,Asn^25,Nle^27]-hGRF(1-31)--NH2] (H-YADAIFTDSYRKVLGQLSARKLLQNI[Nle]SRQQ-NH2) the “Dose Needed to Release 2.01 μg/ml of GH” value was 0.42 nM, the Potency was 76% and the “Relative Maximum Activity (% of hGRF)” value was 87 % of hGRF.
For `CCCC[C@H](NC(=O)[C@@H](NC(=O)[C@H](CC(=O)O)NC(=O)[C@H](CCC(N)=O)NC(=O)[C@H](CC(C)C)NC(=O)[C@H](CC(C)C)NC(=O)[C@H](CCCCN)NC(=O)[C@H](CCCNC(=N)N)NC(=O)[C@H](C)NC(=O)[C@H](CO)NC(=O)[C@H](CC(C)C)NC(=O)[C@H](CCC(N)=O)NC(=O)CNC(=O)[C@H](CC(C)C)NC(=O)[C@@H](NC(=O)[C@H](CCCCN)NC(=O)[C@H](CCCNC(=N)N)NC(=O)[C@H](Cc1ccc(O)cc1)NC(=O)[C@H](CO)NC(=O)[C@H](CC(N)=O)NC(=O)[C@@H](NC(=O)[C@H](Cc1ccccc1)NC(=O)[C@@H](NC(=O)[C@H](C)NC(=O)[C@H](CC(N)=O)NC(=O)[C@H](C)NC(=O)[C@@H](N)Cc1ccc(O)cc1)[C@@H](C)CC)[C@@H](C)O)C(C)C)[C@@H](C)CC)C(=O)N[C@@H](CO)C(=O)N[C@@H](CCCNC(=N)N)C(=O)N[C@@H](CCC(N)=O)C(=O)N[C@@H](CCC(N)=O)C(N)=O` [[Asn^3, Nle^27]-hGRF(1-31)--NH2] (H-YANAIFTNSYRKVLGQLSARKLLQDI[Nle]SRQQ-NH2), the “Dose Needed to Release 2.01 μg/ml of GH” value was 0.58 nM, the Potency was 55% and the “Relative Maximum Activity (% of hGRF)” value was 93 % of hGRF.
With `CCCC[C@H](NC(=O)[C@@H](NC(=O)[C@H](CC(N)=O)NC(=O)[C@H](CCC(N)=O)NC(=O)[C@H](CC(C)C)NC(=O)[C@H](CC(C)C)NC(=O)[C@H](CCCCN)NC(=O)[C@H](CCCNC(=N)N)NC(=O)[C@H](C)NC(=O)[C@H](CO)NC(=O)[C@H](CC(C)C)NC(=O)[C@H](CCC(N)=O)NC(=O)CNC(=O)[C@H](CC(C)C)NC(=O)[C@@H](NC(=O)[C@H](CCCCN)NC(=O)[C@H](CCCNC(=N)N)NC(=O)[C@H](Cc1ccc(O)cc1)NC(=O)[C@H](CO)NC(=O)[C@H](CC(N)=O)NC(=O)[C@@H](NC(=O)[C@H](Cc1ccccc1)NC(=O)[C@@H](NC(=O)[C@H](C)NC(=O)[C@H](CC(=O)O)NC(=O)[C@H](C)NC(=O)[C@@H](N)Cc1ccc(O)cc1)[C@@H](C)CC)[C@@H](C)O)C(C)C)[C@@H](C)CC)C(=O)N[C@@H](CO)C(=O)N[C@@H](CCCNC(=N)N)C(=O)N[C@@H](CCC(N)=O)C(=O)N[C@@H](CCC(N)=O)C(N)=O` [[Asn^25, Nle^27]-hGRF(1-31)--NH2, [Asn^25,Nle^27]-hGRF(1-31)--NH2] (H-YADAIFTNSYRKVLGQLSARKLLQNI[Nle]SRQQ-NH2) the “Dose Needed to Release 2.01 μg/ml of GH” value was 0.12 nM, the Potency was 267% and the “Relative Maximum Activity (% of hGRF)” value was 96 % of hGRF.
In the case of `CCCC[C@H](NC(=O)[C@@H](NC(=O)[C@H](CC(=O)O)NC(=O)[C@H](CCC(N)=O)NC(=O)[C@H](CC(C)C)NC(=O)[C@H](CC(C)C)NC(=O)[C@H](CCCCN)NC(=O)[C@H](CCCNC(=N)N)NC(=O)[C@H](C)NC(=O)[C@H](CO)NC(=O)[C@H](CC(C)C)NC(=O)[C@H](CCC(N)=O)NC(=O)CNC(=O)[C@H](CC(C)C)NC(=O)[C@@H](NC(=O)[C@H](CCCCN)NC(=O)[C@H](CCCNC(=N)N)NC(=O)[C@H](Cc1ccc(O)cc1)NC(=O)[C@H](CO)NC(=O)[C@H](CC(=O)O)NC(=O)[C@@H](NC(=O)[C@H](Cc1ccccc1)NC(=O)[C@@H](NC(=O)[C@H](C)NC(=O)[C@H](CC(N)=O)NC(=O)[C@H](C)NC(=O)[C@@H](N)Cc1ccc(O)cc1)[C@@H](C)CC)[C@@H](C)O)C(C)C)[C@@H](C)CC)C(=O)N[C@@H](CO)C(=O)N[C@@H](CCCNC(=N)N)C(=O)N[C@@H](CCC(N)=O)C(=O)N[C@@H](CCC(N)=O)C(N)=O` [[Asn^3, Asp^8, Nle^27]-hGRF(1-31)--NH2, [Asn^3,Asp^8,Nle^27]-hGRF(1-31)--NH2] (H-YANAIFTDSYRKVLGQLSARKLLQDI[Nle]SRQQ-NH2), the “Dose Needed to Release 2.01 μg/ml of GH” value is reported as 6.74 nM, the Potency is reported as 3% and the Potency (Asp^8, Nle^27 ]) is reported as 5%. For the same compound, the “Relative Maximum Activity (% of hGRF)” value was 107 % of hGRF.
In the case of `CC[C@H](C)[C@H](NC(=O)[C@H](C)NC(=O)[C@H](CC(=O)O)NC(=O)[C@H](C)NC(=O)[C@@H](N)Cc1ccc(O)cc1)C(=O)N[C@@H](Cc1ccccc1)C(=O)N[C@H](C(=O)N[C@@H](CC(N)=O)C(=O)N[C@@H](CO)C(=O)N[C@@H](Cc1ccc(O)cc1)C(=O)N[C@@H](CCCNC(=N)N)C(=O)N[C@@H](CCCCN)C(=O)N[C@H](C(=O)N[C@@H](CC(C)C)C(=O)NCC(=O)N[C@@H](CCC(N)=O)C(=O)N[C@@H](CC(C)C)C(=O)N[C@@H](CO)C(=O)N[C@@H](C)C(=O)N[C@@H](CCCNC(=N)N)C(=O)N[C@@H](CCCCN)C(=O)N[C@@H](CC(C)C)C(=O)N[C@@H](CC(C)C)C(=O)N[C@@H](CCC(N)=O)C(=O)N[C@@H](CC(=O)O)C(=O)N[C@H](C(=O)N[C@@H](CCSC)C(=O)N[C@@H](CO)C(=O)N[C@@H](CCCNC(=N)N)C(=O)N[C@@H](CCC(N)=O)C(=O)N[C@@H](CCC(N)=O)C(=O)NCC(=O)N[C@@H](CCC(=O)O)C(=O)N[C@@H](CO)C(=O)N[C@@H](CC(N)=O)C(=O)N[C@@H](CCC(N)=O)C(=O)N[C@@H](CCC(=O)O)C(=O)N[C@@H](CCCNC(=N)N)C(=O)NCC(=O)N[C@@H](C)C(=O)N[C@@H](CCCNC(=N)N)C(=O)N[C@@H](C)C(=O)N[C@@H](CCCNC(=N)N)C(=O)N[C@@H](CC(C)C)C(N)=O)[C@@H](C)CC)C(C)C)[C@@H](C)O` [hGRF(1-44)--NH2, reference compound], the “Dose Needed to Release 2.01 μg/ml of GH” value is reported as 0.32 nM, the Potency is reported as 100% and the “Relative Maximum Activity (% of hGRF)” value is reported as 100 % of hGRF.
